According to the supplement of paper PMC8149375:

Columns and labels:
Conditions in all cases: treatment: drug alone; 5 days
769-P [1] = experiment: GI50, drug alone; higher = less potent
Description: (§1)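 Primary HTS: 8 RCC cell lines treated with 8 doses (up to 10 uM) of each library drug alone for 5 days; viability read by CellTiter-Glo and normalised to DMSO. GI50 was fitted with XLfit (4-parameter), AUC is the area under the dose-response curve, and minimum viability is the lowest fraction of DMSO viability across doses.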

786-O [2] = experiment: GI50, drug alone; higher = less potent
Description: as §1

A498 [3] = experiment: GI50, drug alone; higher = less potent
Description: as §1

ACHN [4] = experiment: GI50, drug alone; higher = less potent
Description: as §1

CAKI-1 [5] = experiment: GI50, drug alone; higher = less potent
Description: as §1

SN12C [6] = experiment: GI50, drug alone; higher = less potent
Description: as §1

TK-10 [7] = experiment: GI50, drug alone; higher = less potent
Description: as §1

UO-31 [8] = experiment: GI50, drug alone; higher = less potent
Description: as §1

769-P [9] = experiment: minimum viability across doses, drug alone, relative to DMSO (fraction); higher = less growth inhibition
Description: as §1

786-O [10] = experiment: as above
Description: as §1

A498 [11] = experiment: as above
Description: as §1

ACHN [12] = experiment: as above
Description: as §1

CAKI-1 [13] = experiment: as above
Description: as §1

SN12C [14] = experiment: as above
Description: as §1

TK-10 [15] = experiment: as above
Description: as §1

UO-31 [16] = experiment: as above
Description: as §1

769-P [17] = experiment: AUC of dose-response viability curve, drug alone (arbitrary (AUC of normalised viability)); higher = less growth inhibition
Description: as §1

786-O [18] = experiment: as above
Description: as §1

A498 [19] = experiment: as above
Description: as §1

ACHN [20] = experiment: as above
Description: as §1

CAKI-1 [21] = experiment: as above
Description: as §1

SN12C [22] = experiment: as above
Description: as §1

TK-10 [23] = experiment: as above
Description: as §1

UO-31 [24] = experiment: as above
Description: as §1

Row | GI50, drug alone (786-O [2]) [nM] | GI50, drug alone (ACHN [4]) [nM] | SMILES | GI50, drug alone (769-P [1]) [nM] | GI50, drug alone (A498 [3]) [nM] | GI50, drug alone (CAKI-1 [5]) [nM] | GI50, drug alone (SN12C [6]) [nM] | GI50, drug alone (TK-10 [7]) [nM] | GI50, drug alone (UO-31 [8]) [nM] | minimum viability across doses (769-P [9]) | minimum viability across doses (786-O [10]) | minimum viability across doses (A498 [11]) | minimum viability across doses (ACHN [12]) | minimum viability across doses (CAKI-1 [13]) | minimum viability across doses (SN12C [14]) | minimum viability across doses (TK-10 [15]) | minimum viability across doses (UO-31 [16]) | AUC of dose-response viability curve (769-P [17]) | AUC of dose-response viability curve (786-O [18]) | AUC of dose-response viability curve (A498 [19]) | AUC of dose-response viability curve (ACHN [20]) | AUC of dose-response viability curve (CAKI-1 [21]) | AUC of dose-response viability curve (SN12C [22]) | AUC of dose-response viability curve (TK-10 [23]) | AUC of dose-response viability curve (UO-31 [24])
1 | 631 | 2480 | COCCOc1ccc2c(c1)ncn2-c1ccc2cccc(N3CCC(N)CC3)c2n1 | 6040 | 3300 | 2110 | 2800 | 2120 | 2910 | 0.333 | 0.00547 | 0.0414 | 0.0176 | 0.292 | 0.0384 | 0.198 | 0.00652 | 3.12 | 1.81 | 3.27 | 2.7 | 2.66 | 2.92 | 2.43 | 3.38
2 | 538 | 2730 | CC1(COc2ccc3c(c2)ncn3-c2ccc3cccc(N4CCC(N)CC4)c3n2)COC1 | 5050 | 3470 | 3200 | 2190 | 4880 | 1370 | 0.283 | 0.00547 | 0.0171 | 0.0169 | 0.319 | 0.0442 | 0.16 | 0.0124 | 2.25 | 1.83 | 3.5 | 2.98 | 2.69 | 2.58 | 2.88 | 2.67
3 | 6.29 | 17 | CCc1cnn2c(NCc3ccc[n+]([O-])c3)cc(N3CCCC[C@H]3CCO)nc12 | 29.8 | 13.6 | 14.7 | 14.7 | 21.8 | 11 | 0.0153 | 0.00554 | 0.00896 | 0.011 | 0.0724 | 0.0122 | 0.128 | 0.0105 | 1.04 | 0.398 | 0.65 | 0.783 | 0.874 | 0.716 | 1.15 | 0.612
4 | 179 | 78.5 | Cc1nc(Nc2ncc(C(=O)Nc3c(C)cccc3Cl)s2)cc(N2CCN(CCO)CC2)n1 | 149 | > 10000 | 78.8 | 2300 | 25.7 | 135 | 0.0457 | 0.0837 | 0.631 | 0.0527 | 0.0431 | 0.377 | 0.0612 | 0.0768 | 1.7 | 1.9 | 3.35 | 1.52 | 1.45 | 2.35 | 1.11 | 1.93

Row | SMILES | GI50, drug alone (786-O [2]) [nM] | GI50, drug alone (ACHN [4]) [nM] | GI50, drug alone (769-P [1]) [nM] | GI50, drug alone (A498 [3]) [nM] | GI50, drug alone (CAKI-1 [5]) [nM] | GI50, drug alone (SN12C [6]) [nM] | GI50, drug alone (TK-10 [7]) [nM] | GI50, drug alone (UO-31 [8]) [nM] | minimum viability across doses (769-P [9]) | minimum viability across doses (786-O [10]) | minimum viability across doses (A498 [11]) | minimum viability across doses (ACHN [12]) | minimum viability across doses (CAKI-1 [13]) | minimum viability across doses (SN12C [14]) | minimum viability across doses (TK-10 [15]) | minimum viability across doses (UO-31 [16]) | AUC of dose-response viability curve (769-P [17]) | AUC of dose-response viability curve (786-O [18]) | AUC of dose-response viability curve (A498 [19]) | AUC of dose-response viability curve (ACHN [20]) | AUC of dose-response viability curve (CAKI-1 [21]) | AUC of dose-response viability curve (SN12C [22]) | AUC of dose-response viability curve (TK-10 [23]) | AUC of dose-response viability curve (UO-31 [24])
5 | Cn1cc(C2=C(c3cn(C4CCN(Cc5ccccn5)CC4)c4ccccc34)C(=O)NC2=O)c2ccccc21 | > 10000 | > 10000 | > 10000 | > 10000 | > 10000 | > 10000 | > 10000 | > 10000 | 0.834 | 0.805 | 1.1 | 0.863 | 0.814 | 0.861 | 0.698 | 0.922 | 3.34 | 3.23 | 4.23 | 3.3 | 3.55 | 3.33 | 3.24 | 4.69
